Experimental data from ChEMBL document CHEMBL5291721, “A preclinical secondary pharmacology resource illuminates target-adverse drug reaction associations of marketed drugs” (Nat Commun, 2023).

target: T1, Muscarinic acetylcholine receptor M1 (Homo sapiens, UniProt P11229); format: functional, cell-based
T1 sequence (P11229 whole entry): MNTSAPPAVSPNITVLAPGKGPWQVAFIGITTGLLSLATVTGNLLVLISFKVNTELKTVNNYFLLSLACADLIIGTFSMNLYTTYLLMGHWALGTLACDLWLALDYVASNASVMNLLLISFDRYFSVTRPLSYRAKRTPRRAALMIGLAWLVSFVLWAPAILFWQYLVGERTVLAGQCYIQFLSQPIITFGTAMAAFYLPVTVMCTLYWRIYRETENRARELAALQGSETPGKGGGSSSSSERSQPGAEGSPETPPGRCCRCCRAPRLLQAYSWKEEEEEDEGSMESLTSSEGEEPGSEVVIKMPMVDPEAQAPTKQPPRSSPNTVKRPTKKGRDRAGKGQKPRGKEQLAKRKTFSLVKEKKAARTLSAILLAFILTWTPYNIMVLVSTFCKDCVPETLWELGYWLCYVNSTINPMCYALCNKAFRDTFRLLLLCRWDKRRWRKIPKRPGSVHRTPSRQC
Note: assay procedure not described here.

| SMILES | AC50 [µM] |
| --- | --- |
| CCc1nc(C(N)=O)c(Nc2ccc(N3CCC(N4CCN(C)CC4)CC3)c(OC)c2)nc1NC1CCOCC1 [GILTERITINIB] | > 0.3 |
| CC[C@H]1OC(=O)[C@H](C)C(=O)[C@H](C)[C@@H](O[C@@H]2O[C@H](C)C[C@H](N(C)C)[C@H]2O)[C@](C)(OC)C[C@@H](C)C(=O)[C@H](C)[C@H]2N(CCCCn3cnc(-c4cccnc4)c3)C(=O)O[C@]12C [TELITHROMYCIN] | > 30 |
| OC[C@H]1O[C@@H](c2ccc(F)c(Cc3cc4ccccc4s3)c2)[C@H](O)[C@@H](O)[C@@H]1O [IPRAGLIFLOZIN] | 19.8 |
| CC(=O)Oc1cc(C(F)(F)F)ccc1C(=O)O [TRIFLUSAL] | > 30 |
| C[C@@H]1C[C@H]2[C@@H]3CCC4=CC(=O)C=C[C@]4(C)[C@@]3(Cl)[C@@H](O)C[C@]2(C)[C@@]1(OC(=O)c1ccco1)C(=O)CCl [MOMETASONE FUROATE] | > 30 |
